Experimental data reported in patent US9486422B2, “Small molecule inhibitors of Mcl-1 and the uses of thereof” (THE REGENTS OF THE UNIVERSITY OF MICHIGAN, priority 2011, dated 2016).
Where two headings read alike, the source gives them in different places.

Target: Mcl-1 (Homo sapiens, UniProt Q07820)
Test: FP-based binding assay, Mcl-1
Settings: for Ki: read-out: Mcl-1 Ki ± SD
[1] = competitive FP, Flu-BID 2 nM, Mcl-1 90 nM, read-out: Mcl-1 IC50 ± SD
[2] = competitive FP, Ki calculated from IC50

Mcl-1, sequence (Q07820 171-327): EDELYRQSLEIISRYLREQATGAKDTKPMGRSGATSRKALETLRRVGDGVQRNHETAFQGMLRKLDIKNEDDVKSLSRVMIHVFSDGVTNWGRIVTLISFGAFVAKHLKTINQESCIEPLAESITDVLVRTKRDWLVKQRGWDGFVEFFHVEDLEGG

## O=C(O)CSc1cc(NS(=O)(=O)c2ccccc2)c2ccccc2c1O [Compound 2, 2-((1-Hydroxy-4-(phenylsulfonamido)naphthalen-2-yl)thio)acetic acid]
[1]
  IC50: 13 ± 1.62 µM
  Ki: 3.56 ± 0.45 µM

## Cc1ccc(S(=O)(=O)Nc2cc(SCC(=O)O)c(O)c3ccccc23)cc1 [Compound 3]
[1]
  IC50: 11.5 ± 0.78 µM
[2]
  Ki: 3.13 ± 0.22 µM

## CCc1ccc(S(=O)(=O)Nc2cc(SCC(=O)O)c(O)c3ccccc23)cc1 [Compound 4]
[1]
  IC50: 5.73 ± 1.34 µM
[2]
  Ki: 1.55 ± 0.37 µM

## COc1c(SCC(N)=O)cc(NS(=O)(=O)c2ccc(Br)cc2)c2ccccc12 [Compound 4v, 2-((4-(4-Bromophenylsulfonamido)-1-methoxynaphthalen-2-yl)thio)acetamide]
FP assay
  binding to Mcl-1, result in words: loss of binding
[2]
  Ki: > 25 µM

## CC(C)c1ccc(S(=O)(=O)Nc2cc(SCC(=O)O)c(O)c3ccccc23)cc1 [Compound 5]
[2]
  Ki: 1.06 ± 0.17 µM
read-out: Mcl-1 IC50 ± SD
  IC50: 3.92 ± 0.63 µM

## CC(C)(C)c1ccc(S(=O)(=O)Nc2cc(SCC(=O)O)c(O)c3ccccc23)cc1 [Compound 6]
[1]
  IC50: 3.03 ± 0.17 µM
[2]
  Ki: 0.81 ± 0.04 µM

## O=C(O)CSc1cc(NS(=O)(=O)c2ccc(F)cc2)c2ccccc2c1O [Compound 7]
[1]
  IC50: 15.5 ± 3.38 µM
[2]
  Ki: 4.23 ± 0.93 µM

## O=C(O)CSc1cc(NS(=O)(=O)c2ccc(Cl)cc2)c2ccccc2c1O [Compound 8, 2-((4-(4-Chlorophenylsulfonamido)-1-hydroxynaphthalen-2-yl)thio)acetic acid]
[1]
  IC50: 3.08 ± 0.35 µM
  Ki: 0.82 ± 0.1 µM

## O=C(O)CSc1cc(NS(=O)(=O)c2cccc(Br)c2)c2ccccc2c1O [Compound 10, 2-((4-(3-Bromophenylsulfonamido)-1-hydroxynaphthalen-2-yl)thio)acetic acid]
[1]
  IC50: 8.64 ± 0.69 µM
[2]
  Ki: 2.35 ± 0.19 µM

## O=C(O)CSc1cc(NS(=O)(=O)c2ccccc2Br)c2ccccc2c1O [Compound 11, 2-((4-(2-Bromophenylsulfonamido)-1-hydroxynaphthalen-2-yl)thio)acetic acid]
[1]
  IC50: 16.2 ± 3.12 µM
  Ki: 4.42 ± 0.86 µM

## O=C(O)CSc1cc(NS(=O)(=O)c2cc3ccccc3s2)c2ccccc2c1O [Compound 12, 2-((4-(Benzo[b]thiophene-2-sulfonamido)-1-hydroxynaphthalen-2-yl)thio)acetic acid]
  IC50: 5.66 ± 1.15 µM
[2]
  Ki: 1.54 ± 0.32 µM

## O=C(O)CSc1cc(NS(=O)(=O)c2ccc3ccccc3c2)c2ccccc2c1O [Compound 13]
[1]
  IC50: 2.74 ± 0.18 µM
[2]
  Ki: 0.73 ± 0.05 µM

## O=C(O)CSc1cc(NS(=O)(=O)c2ccc(-c3ccc(Cl)cc3)cc2)c2ccccc2c1O [Compound 17, 2-((4-(4′-Chloro-[1,1′-biphenyl]-4-ylsulfonamido)-1-hydroxynaphthalen-2-yl)thio)acetic acid]
[1]
  IC50: 0.68 ± 0.14 µM
[2]
  Ki: 0.17 ± 0.04 µM

## CCOc1ccc(S(=O)(=O)Nc2cc(SCC(=O)O)c(O)c3ccccc23)cc1 [Compound 19]
[1]
  IC50: 50.1 ± 4.15 µM
[2]
  Ki: 13.7 ± 1.14 µM

## O=C(O)CSc1cc(NS(=O)(=O)c2ccc(C(=O)O)cc2)c2ccccc2c1O [Compound 20]
[1]
  IC50: 17.4 µM
[2]
  Ki: 4.76 µM

## CS(=O)(=O)Nc1cc(SCC(=O)O)c(O)c2ccccc12 [Compound 21, 2-((1-Hydroxy-4-(methylsulfonamido)naphthalen-2-yl)thio)acetic acid]
[1]
  IC50: > 200 µM
[2]
  Ki: > 50 µM

## O=C(O)CSc1cc(NC(=O)c2ccc(Br)cc2)c2ccccc2c1O [Compound 23, 2-((4-(4-Bromobenzamido)-1-hydroxynaphthalen-2-yl)thio)acetic acid]
[1]
  IC50: > 100 µM
[2]
  Ki: > 25 µM

## O=C(O)CSc1cc(NC(=O)Cc2ccccc2)c2ccccc2c1O [Compound 24, 2-((1-Hydroxy-4-(2-phenylacetamido)naphthalen-2-yl)thio)acetic acid]
[1]
  IC50: 154 ± 40.2 µM
[2]
  Ki: 42.4 ± 11 µM

## O=C(O)CSc1cc(NS(=O)(=O)Cc2ccc(Cl)cc2)c2ccccc2c1O [Compound 25, 2-((4-((4-Chlorophenyl)methylsulfonamido)-1-hydroxynaphthalen-2-yl)thio)acetic acid]
[1]
  IC50: 19.1 ± 1.31 µM
[2]
  Ki: 5.23 ± 0.36 µM
